Data from patent EP1561465A2, “Methods of use of fluoroquinolone compounds against bacteria” (LG Life Sciences, Ltd., priority 1999, dated 2001).
In brackets after ≈: the same amount, converted by molar mass. Read-outs that look alike come from different tables or passages of the source.

What was measured:
Format in all cases: cell-based
Acinetobacter spp. = assay: MIC by agar dilution (NCCLS), 322 nosocomial Gram negative isolates, Athens 1998; conditions: n = 38 strains
Enterobacter spp. = assay: as above; conditions: Enterobacter, n = 57 isolates
Streptococcus pneumoniae = assay: MIC by agar dilution (NCCLS), 411 isolates Buenos Aires 1998-99; conditions: for MIC / MIC90: Streptococcus pneumoniae; for MIC: Ciprofloxacin-resistant S. pneumoniae, read-out: MIC; for MIC90: read-out: MIC90
Shigella spp. = assay: MIC by agar dilution (NCCLS M7-A4), 288 enteropathogenic isolates, eight quinolones; conditions: Shigella spp. (n = 21)
Aeromonas spp. = assay: MIC by agar dilution (NCCLS M7-A4), 288 enteropathogenic isolates, gemifloxacin and 15 other antimicrobials; conditions: Aeromonas spp. N= 16
Staphylococcus aureus [1] = assay: MIC by agar macrodilution (NCCLS), 373 Gram positive isolates, Athens 1998; conditions: Methicillin-susceptible Staphylococcus aureus (n = 85)
Staphylococcus aureus [2] = assay: MIC by agar dilution (NCCLS), 411 isolates Buenos Aires 1998-99; conditions: for MIC90: Staphylococcus aureus
Proteus mirabilis = assay: MIC by agar dilution (NCCLS), 322 nosocomial Gram negative isolates, Athens 1998; conditions: Proteus mirabilis; n = 57 isolates
Klebsiella pneumoniae [3] = assay: as above; conditions: n = 56 isolates
Streptococcus pyogenes = assay: MIC by agar dilution (NCCLS), 411 isolates Buenos Aires 1998-99; conditions: Streptococcus pyogenes (n = 69)
Pseudomonas aeruginosa = assay: MIC by agar dilution (NCCLS), 322 nosocomial Gram negative isolates, Athens 1998; conditions: n = 57 isolates
Enterococcus faecalis = assay: MIC by NCCLS broth microdilution, 1100 Japanese clinical isolates 1997-1998; conditions: for MIC50 / MIC90: Enterococcus faecalis; for MIC90: read-out: MIC90
Citrobacter freundii = assay: as above
Serratia marcescens = assay: as above
Moraxella catarrhalis = assay: MIC by two-fold serial agar dilution, Sensitivity Disk agar-N (Kitasato isolates); conditions: Moraxella catarrhalis (22)
Haemophilus influenzae = assay: as above; conditions: Haemophilus influenzae (24)
Enterococcus gallinarum = assay: MIC by NCCLS broth microdilution, 1100 Japanese clinical isolates 1997-1998; conditions: Enterococcus gallinarum, GALLINARUM, Enterococcus gallinarum (vanC1), read-out: MIC
[4] = system: Streptococcus pneumoniae and Haemophilus influenzae; assay: MIC by broth microdilution (NCCLS), all isolates pooled
Enterococcus faecium = assay: MIC by NCCLS broth microdilution, 1100 Japanese clinical isolates 1997-1998; conditions: for MIC: Enterococcus faecium
Klebsiella pneumoniae [5] = assay: as above
[6] = system: Staphylococcus epidermidis; assay: as above; conditions: for MIC50 / MIC90: Staphylococcus epidermidis
[7] = Streptococcus pneumoniae (n = 90)
[8] = S. pneumoniae, Penicillin intermediate (n = 17)
[9] = S. pneumoniae, Penicillin resistant (n = 4)
[10] = S. pneumoniae, Penicillin susceptible (n = 69)
[11] = S. aureus, Methicillin resistant (n = 14)
[12] = S. aureus, Methicillin susceptible (n = 66)
[13] = Enterococcus faecalis ciprofloxacin resistant (n=15)
[14] = Enterococcus faecalis ciprofloxacin susceptible (n=24)
[15] = Staphylococcus epidermidis oxacillin resistant (n=43)
[16] = Staphylococcus epidermidis oxacillin susceptible (n=35)

CC1COc2c(N3CCN(C)CC3)c(F)cc3c(=O)c(C(=O)O)cn1c23 (stereo not shown) [Ofloxacin, ofloxacin]
MIC50 (Acinetobacter spp.; Acinetobacter): 8 µg/mL (≈ 22.1 µM) | MIC90 (Acinetobacter spp.; Acinetobacter): 64 µg/mL (≈ 177 µM) | MIC Range (Acinetobacter spp.): 0.125 to 64 µg/mL | MIC50 (Enterobacter spp.; read-out: MIC50): 0.125 µg/mL (≈ 0.346 µM) | MIC90 (Enterobacter spp.; read-out: MIC90): 64 µg/mL (≈ 177 µM) | MIC Range (Streptococcus pneumoniae; [7]): 1 to 16 µg/mL | MIC (Streptococcus pneumoniae; Strain 1): 2 µg/mL (≈ 5.53 µM) | MIC (Streptococcus pneumoniae; Strain 2): 2 µg/mL (≈ 5.53 µM) | MIC (Streptococcus pneumoniae; Strain 3): 16 µg/mL (≈ 44.3 µM) | MIC (Streptococcus pneumoniae; Strain 4): 8 µg/mL (≈ 22.1 µM) | MIC90 (Streptococcus pneumoniae; [8]): 2 µg/mL (≈ 5.53 µM) | MIC90 (Streptococcus pneumoniae; [9]): 1 µg/mL (≈ 2.77 µM) | MIC90 (Streptococcus pneumoniae; [10]): 2 µg/mL (≈ 5.53 µM) | MIC90 (Streptococcus pneumoniae; [7]): 2 µg/mL (≈ 5.53 µM) | % Susceptible (Shigella spp.): 100% | MIC50 (Shigella spp.): 0.03 µg/mL (≈ 0.083 µM) | MIC90 (Shigella spp.): 0.06 µg/mL (≈ 0.166 µM) | MIC Range (Shigella spp.): ≤0.015 to 0.06 µg/mL | MIC (mg/L) Range (Aeromonas spp.): ≤0.015 to 0.12 mg/L | MIC (Aeromonas spp.; read-out: MIC (mg/L) 50%): ≤ 0.015 mg/L | MIC (Aeromonas spp.; read-out: MIC (mg/L) 90%): 0.03 mg/L (≈ 0.083 µM) | MIC Range (Staphylococcus aureus [1]): 0.25 to 32 µg/mL | MIC90 (Staphylococcus aureus [1]; read-out: MIC90): 1 µg/mL (≈ 2.77 µM) | Resistance (%) (Staphylococcus aureus [2]; [11]): 100% | Resistance (%) (Staphylococcus aureus [2]; [12]): 0% | MIC90 (Staphylococcus aureus [2]; [11]): 16 µg/mL (≈ 44.3 µM) | MIC90 (Staphylococcus aureus [2]; Staphylococcus aureus (n = 80)): 8 µg/mL (≈ 22.1 µM) | MIC50 (Proteus mirabilis): 0.25 µg/mL (≈ 0.692 µM) | MIC90 (Proteus mirabilis): 32 µg/mL (≈ 88.6 µM) | MIC50 (Klebsiella pneumoniae [3]; Klebsiella pneumoniae): 0.125 µg/mL (≈ 0.346 µM) | MIC90 (Klebsiella pneumoniae [3]; Klebsiella pneumoniae): 1 µg/mL (≈ 2.77 µM) | MIC Range (Klebsiella pneumoniae [3]): 0.06 to 32 µg/mL | MIC Range (Streptococcus pyogenes): 0.5 to 4 µg/mL | MIC90 (Streptococcus pyogenes; read-out: MIC90): 2 µg/mL (≈ 5.53 µM) | MIC50 (Pseudomonas aeruginosa): 2 µg/mL (≈ 5.53 µM) | MIC90 (Pseudomonas aeruginosa): > 64 µg/mL

C[C@H]1COc2c(N3CCN(C)CC3)c(F)cc3c(=O)c(C(=O)O)cn1c23 [Levofloxacin, levofloxacin]
MIC Range (Enterococcus faecalis; [13]): 2 to 32 µg/mL | MIC Range (Enterococcus faecalis; [14]): 1 to 2 µg/mL | MIC50 (Enterococcus faecalis; [13]): 16 µg/mL (≈ 44.3 µM) | MIC90 (Enterococcus faecalis; [13]): 32 µg/mL (≈ 88.6 µM) | MIC50 (Enterococcus faecalis; [14]): 1 µg/mL (≈ 2.77 µM) | MIC90 (Enterococcus faecalis; [14]): 2 µg/mL (≈ 5.53 µM) | MIC50 (Citrobacter freundii; Citrobacter freundii): 0.125 µg/mL (≈ 0.346 µM) | MIC90 (Citrobacter freundii; Citrobacter freundii (n=39)): 1 µg/mL (≈ 2.77 µM) | MIC Range (Citrobacter freundii; Citrobacter freundii (n=39)): 0.016 to 1 µg/mL | MIC50 (Serratia marcescens; Serratia marcescens): 0.125 µg/mL (≈ 0.346 µM) | MIC90 (Serratia marcescens; Serratia marcescens (n=30)): 0.5 µg/mL (≈ 1.38 µM) | MIC Range (Serratia marcescens; Serratia marcescens (n=30)): 0.063 to 32 µg/mL | MIC Range (Streptococcus pneumoniae; [7]): 0.25 to 4 µg/mL | MIC (Streptococcus pneumoniae; Strain 1): 1 µg/mL (≈ 2.77 µM) | MIC (Streptococcus pneumoniae; Strain 2): 1 µg/mL (≈ 2.77 µM) | MIC (Streptococcus pneumoniae; Strain 3): 4 µg/mL (≈ 11.1 µM) | MIC (Streptococcus pneumoniae; Strain 4): 2 µg/mL (≈ 5.53 µM) | MIC90 (Streptococcus pneumoniae; [8]): 1 µg/mL (≈ 2.77 µM) | MIC90 (Streptococcus pneumoniae; [9]): 1 µg/mL (≈ 2.77 µM) | MIC90 (Streptococcus pneumoniae; [10]): 1 µg/mL (≈ 2.77 µM) | MIC90 (Streptococcus pneumoniae; [7]): 1 µg/mL (≈ 2.77 µM) | % Susceptible (Shigella spp.): 100% | MIC50 (Shigella spp.): 0.03 µg/mL (≈ 0.083 µM) | MIC90 (Shigella spp.): 0.03 µg/mL (≈ 0.083 µM) | MIC50 (Moraxella catarrhalis): 0.063 µg/mL (≈ 0.174 µM) | MIC90 (Moraxella catarrhalis): 0.063 µg/mL (≈ 0.174 µM) | MIC Range (Moraxella catarrhalis): 0.031 to 0.063 µg/mL | MIC (mg/L) Range (Aeromonas spp.): ≤0.015 to 0.06 mg/L | MIC (Aeromonas spp.; read-out: MIC (mg/L) 50%): ≤ 0.015 mg/L | MIC (Aeromonas spp.; read-out: MIC (mg/L) 90%): ≤ 0.015 mg/L | MIC50 (Haemophilus influenzae): 0.031 µg/mL (≈ 0.0858 µM) | MIC90 (Haemophilus influenzae): 0.031 µg/mL (≈ 0.0858 µM) | MIC Range (Haemophilus influenzae): 0.016 to 0.031 µg/mL | MIC (Enterococcus gallinarum; strain TMS1): 1 µg/mL (≈ 2.77 µM) | MIC (Enterococcus gallinarum; strain TMS2): 2 µg/mL (≈ 5.53 µM) | MIC (Enterococcus gallinarum; strain TMS3): 1 µg/mL (≈ 2.77 µM) | MIC (Enterococcus gallinarum; strain TMS4): 0.5 µg/mL (≈ 1.38 µM) | MIC90 ([4]; all (380) isolates tested (235 S. pneumoniae, 145 H. influenzae)): 1 µg/mL (≈ 2.77 µM) | MIC90 ([4]; all isolates tested (602)): 1 µg/mL (≈ 2.77 µM) | Resistance (%) (Staphylococcus aureus [2]; [11]): 100% | Resistance (%) (Staphylococcus aureus [2]; [12]): 0% | MIC Range (Staphylococcus aureus [2]; Staphylococcus aureus (n = 80)): 0.06 to 8 µg/mL | MIC90 (Staphylococcus aureus [2]; [11]): 8 µg/mL (≈ 22.1 µM) | MIC90 (Staphylococcus aureus [2]; [12]): 0.25 µg/mL (≈ 0.692 µM) | MIC90 (Staphylococcus aureus [2]; Staphylococcus aureus (n = 80)): 4 µg/mL (≈ 11.1 µM) | MIC50 (Enterococcus faecium; Enterococcus faecium (n=39)): 32 µg/mL (≈ 88.6 µM) | MIC90 (Enterococcus faecium; Enterococcus faecium (n=39)): 128 µg/mL (≈ 354 µM) | MIC (Enterococcus faecium; Enterococcus faecium (vanA) vancomycin resistant, strain TMS1): 64 µg/mL (≈ 177 µM) | MIC (Enterococcus faecium; Enterococcus faecium (vanA) vancomycin resistant, strain TMS2): 2 µg/mL (≈ 5.53 µM) | MIC (Enterococcus faecium; Enterococcus faecium (vanA) vancomycin resistant, strain TMS3): 32 µg/mL (≈ 88.6 µM) | MIC (Enterococcus faecium; Enterococcus faecium (vanA) vancomycin resistant, strain TMS4): 32 µg/mL (≈ 88.6 µM) | MIC (Enterococcus faecium; Enterococcus faecium (vanA) vancomycin resistant, strain TMS5): 4 µg/mL (≈ 11.1 µM) | MIC (Enterococcus faecium; Enterococcus laecium (van B) vancomycin resistant, strain TMS6): 32 µg/mL (≈ 88.6 µM) | MIC (Enterococcus faecium; Enterococcus laecium (van B) vancomycin resistant, strain TMS7): 32 µg/mL (≈ 88.6 µM) | MIC Range (Streptococcus pyogenes): 0.25 to 2 µg/mL | MIC90 (Klebsiella pneumoniae [5]; Klebsiella pneumoniae): 0.125 µg/mL (≈ 0.346 µM) | MIC50 (Klebsiella pneumoniae [5]; Klebsiella pneumoniae (n=35)): 0.032 µg/mL (≈ 0.0886 µM) | MIC Range (Klebsiella pneumoniae [5]; Klebsiella pneumoniae (n=35)): 0.016 to 4 µg/mL | MIC Range [6, 15]: 0.25 to 16 µg/mL | MIC Range [6, 16]: 0.063 to 8 µg/mL | MIC50 [6, 15]: 4 µg/mL (≈ 11.1 µM) | MIC90 [6, 15]: 8 µg/mL (≈ 22.1 µM) | MIC50 [6, 16]: 0.25 µg/mL (≈ 0.692 µM) | MIC90 [6, 16]: 4 µg/mL (≈ 11.1 µM)
